Here are results for two compounds from publication PMC11597817, “Modulation of Multispecific Transporters by Uncaria tomentosa Extract and Its Major Phytoconstituents” (Pharmaceutics, 2024).

pIC50: −log10 of the molar value. Where two headings read alike, the source gives them in different places.

One series addresses T1, OATP2B1 (Homo sapiens, UniProt O94956).
T1 construct: expressed in transfected cells; host or cells: HEK293 (lentiviral transduction; cDNA synthesised by GenScript)
Description: Uptake inhibition assay, OATP2B1-overexpressing HEK293 cells. The class given is cell-based. The following applies: oxindole alkaloids, substrate E3S, read-out: IC50 (95% CI of IC50). As to the method:
(§1) The human embryonic kidney 293 (HEK293) cell line was purchased from Invitrogen/ThermoFisher (Waltham, MA, USA). Madin–Darby canine kidney II (MDCKII) wild type cells were obtained from the European Collection of Authenticated Cell Cultures (ECACC catalog no. 00062107). […]
(§2) Plated cells were preincubated with a transport buffer (HBSS) containing 30 or 150 µg/mL of UT extract or 100 µM of isopteropodine, mitraphylline, or uncarine D for 15 min at an appropriate temperature. […] For radiolabeled substrates, accumulation was measured by liquid scintillation counting (MicroBeta Scintillation Counter, PerkinElmer).
(§3) The transporter-mediated uptake and ATP-dependent transport were determined by subtracting the activity of the control cell/transporter abundant-membrane in the presence of AMP from the activity of the transporter-overexpressing cell/transporter-abundant membrane in the presence of ATP. The relative transporter-specific accumulation was expressed as the percent of DMSO activity. […] Confidence intervals (CIs) of 95% were also determined. […]

The next series addresses T2, OAT3 (Homo sapiens, UniProt Q8TCC7).
T2 construct: expressed in transfected cells; host or cells: HEK293 (lentiviral transduction; cDNA synthesised by GenScript)
In words: Uptake inhibition assay, OAT3-overexpressing HEK293 cells. The class given is cell-based. As to conditions: oxindole alkaloids, substrate E3S, read-out: IC50 (95% CI of IC50). On the procedure: as §1, §2, §3

The target of another series is T3, OAT2 (Homo sapiens, UniProt Q9Y694).
T3 construct: expressed in transfected cells; host or cells: HEK293 (lentiviral transduction; cDNA synthesised by GenScript)
T3 sequence (Q9Y694 1-546 isoform Q9Y694-2): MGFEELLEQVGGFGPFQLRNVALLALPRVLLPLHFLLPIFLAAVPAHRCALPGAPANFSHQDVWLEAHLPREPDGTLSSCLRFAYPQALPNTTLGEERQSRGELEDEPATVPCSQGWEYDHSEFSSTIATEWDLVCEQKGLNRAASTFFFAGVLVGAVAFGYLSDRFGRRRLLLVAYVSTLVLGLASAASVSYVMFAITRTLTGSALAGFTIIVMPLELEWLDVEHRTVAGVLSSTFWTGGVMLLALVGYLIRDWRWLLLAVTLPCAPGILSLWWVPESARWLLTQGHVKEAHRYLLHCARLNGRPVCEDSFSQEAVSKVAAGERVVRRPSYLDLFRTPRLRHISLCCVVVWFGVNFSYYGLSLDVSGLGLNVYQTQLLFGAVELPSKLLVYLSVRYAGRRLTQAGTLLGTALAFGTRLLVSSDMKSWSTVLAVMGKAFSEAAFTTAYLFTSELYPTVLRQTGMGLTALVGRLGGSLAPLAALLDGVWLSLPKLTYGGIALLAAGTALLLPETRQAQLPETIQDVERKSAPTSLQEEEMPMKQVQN
Description: Uptake inhibition assay, OAT2-overexpressing HEK293 cells. The class given is cell-based. The following applies: at 100 µM. On the procedure:
as §1, §2, §3

In the next series the target is T4, OATP1B3 (Homo sapiens, UniProt Q9NPD5).
T4 construct: expressed in transfected cells; host or cells: HEK293 (lentiviral transduction; cDNA synthesised by GenScript)
T4 sequence (Q9NPD5 whole entry): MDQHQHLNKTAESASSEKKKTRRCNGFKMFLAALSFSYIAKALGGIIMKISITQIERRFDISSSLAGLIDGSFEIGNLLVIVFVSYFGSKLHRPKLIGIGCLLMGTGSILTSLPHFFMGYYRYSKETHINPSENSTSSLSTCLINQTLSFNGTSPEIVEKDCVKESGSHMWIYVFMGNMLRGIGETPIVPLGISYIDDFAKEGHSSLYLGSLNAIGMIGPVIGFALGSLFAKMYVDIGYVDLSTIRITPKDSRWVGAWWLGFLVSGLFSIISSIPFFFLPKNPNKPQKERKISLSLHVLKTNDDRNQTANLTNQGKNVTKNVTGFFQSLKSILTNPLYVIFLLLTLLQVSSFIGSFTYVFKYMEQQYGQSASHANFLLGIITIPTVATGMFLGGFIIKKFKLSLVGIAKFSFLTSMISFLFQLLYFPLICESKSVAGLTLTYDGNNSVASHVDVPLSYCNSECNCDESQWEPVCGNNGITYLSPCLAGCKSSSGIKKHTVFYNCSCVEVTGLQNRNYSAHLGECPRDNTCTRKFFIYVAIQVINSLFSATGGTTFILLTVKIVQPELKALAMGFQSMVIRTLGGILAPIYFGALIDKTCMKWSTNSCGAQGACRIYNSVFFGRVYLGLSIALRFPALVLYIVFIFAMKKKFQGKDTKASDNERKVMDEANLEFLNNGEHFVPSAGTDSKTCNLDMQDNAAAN
In words: Uptake inhibition assay, OATP1B3-overexpressing HEK293 cells. The class given is cell-based. The following applies: oxindole alkaloids, substrate CCK-8, read-out: IC50 (95% CI of IC50). On the procedure:
as §1, §2, §3

Another series concerns MDR1. As to conditions: MDR1-overexpressing MDCKII cells and Caco-2 cells; cited from earlier work.

T2 sequence (Q8TCC7 whole entry): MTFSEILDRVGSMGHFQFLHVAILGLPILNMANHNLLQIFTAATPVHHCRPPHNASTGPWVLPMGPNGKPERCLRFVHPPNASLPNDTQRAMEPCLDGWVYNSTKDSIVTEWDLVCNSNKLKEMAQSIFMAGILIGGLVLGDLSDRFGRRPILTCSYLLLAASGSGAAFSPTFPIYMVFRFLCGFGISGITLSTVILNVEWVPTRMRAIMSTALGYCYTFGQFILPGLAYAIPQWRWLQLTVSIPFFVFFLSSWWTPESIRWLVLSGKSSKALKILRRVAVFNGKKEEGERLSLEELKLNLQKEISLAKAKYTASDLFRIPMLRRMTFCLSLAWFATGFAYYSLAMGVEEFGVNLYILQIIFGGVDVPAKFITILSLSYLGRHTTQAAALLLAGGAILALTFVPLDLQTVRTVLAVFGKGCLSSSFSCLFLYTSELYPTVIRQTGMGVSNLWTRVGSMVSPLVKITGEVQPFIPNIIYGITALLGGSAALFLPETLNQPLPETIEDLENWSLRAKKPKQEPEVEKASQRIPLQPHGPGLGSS
T1 sequence (O94956 whole entry): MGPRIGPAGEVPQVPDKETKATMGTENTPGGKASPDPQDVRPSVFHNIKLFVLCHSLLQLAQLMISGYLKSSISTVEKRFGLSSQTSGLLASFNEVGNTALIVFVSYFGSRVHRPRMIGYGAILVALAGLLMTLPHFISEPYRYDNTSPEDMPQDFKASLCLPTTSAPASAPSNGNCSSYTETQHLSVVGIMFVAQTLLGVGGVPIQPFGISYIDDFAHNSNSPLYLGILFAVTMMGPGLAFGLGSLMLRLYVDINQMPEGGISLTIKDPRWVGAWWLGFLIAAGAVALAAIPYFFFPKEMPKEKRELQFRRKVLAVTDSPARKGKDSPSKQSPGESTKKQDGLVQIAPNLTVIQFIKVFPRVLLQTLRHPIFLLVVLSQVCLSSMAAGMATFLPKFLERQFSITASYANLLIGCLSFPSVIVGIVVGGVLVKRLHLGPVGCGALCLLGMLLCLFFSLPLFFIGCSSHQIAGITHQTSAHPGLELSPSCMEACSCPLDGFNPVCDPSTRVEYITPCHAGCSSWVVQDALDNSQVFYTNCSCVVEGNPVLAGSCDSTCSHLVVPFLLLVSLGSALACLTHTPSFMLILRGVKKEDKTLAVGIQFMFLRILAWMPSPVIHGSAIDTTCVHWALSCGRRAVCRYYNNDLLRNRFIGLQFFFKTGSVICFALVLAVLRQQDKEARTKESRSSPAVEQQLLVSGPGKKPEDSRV

Turning to `COC(=O)C1=CO[C@@H](C)[C@@H]2CN3CC[C@@]4(C(=O)Nc5ccccc54)[C@@H]3C[C@H]12` [isopteropodine], the pIC50 (commonly the negative decadic logarithm of the IC50, by convention in mol/L) on OATP2B1 (listed as Isopteropodine) was 4.34; at OATP2B1 it was 4.34; at OAT3 (listed as Isopteropodine) it was 4.33; at OAT3, 4.33; at OATP1B3 (listed as Isopteropodine) it was 4.61; on OATP1B3, 4.61. The “decrease of transporter-mediated transport” value at OAT2 is given as “around 50%”.

Turning to `COC(=O)C1=CO[C@@H](C)[C@H]2CN3CC[C@]4(C(=O)Nc5ccccc54)[C@@H]3C[C@H]12` [mitraphylline], in the series with MDR1, the MDR1 substrate status entry was “MDR1 substrate”.
